{
  "source": "patent US7355042B2",
  "about": "“Treatment of CNS disorders using CNS target modulators” (Hypnion, Inc., priority 2001, dated 2008)",
  "key": {"[1]": {"molecular_target": "T1, H1 receptor from bovine cellular membranes (Bos taurus, UniProt P30546)", "T1 construct": "the H1 receptor was from bovine cellular membranes; from tissue", "T1 sequence (P30546 whole entry)": "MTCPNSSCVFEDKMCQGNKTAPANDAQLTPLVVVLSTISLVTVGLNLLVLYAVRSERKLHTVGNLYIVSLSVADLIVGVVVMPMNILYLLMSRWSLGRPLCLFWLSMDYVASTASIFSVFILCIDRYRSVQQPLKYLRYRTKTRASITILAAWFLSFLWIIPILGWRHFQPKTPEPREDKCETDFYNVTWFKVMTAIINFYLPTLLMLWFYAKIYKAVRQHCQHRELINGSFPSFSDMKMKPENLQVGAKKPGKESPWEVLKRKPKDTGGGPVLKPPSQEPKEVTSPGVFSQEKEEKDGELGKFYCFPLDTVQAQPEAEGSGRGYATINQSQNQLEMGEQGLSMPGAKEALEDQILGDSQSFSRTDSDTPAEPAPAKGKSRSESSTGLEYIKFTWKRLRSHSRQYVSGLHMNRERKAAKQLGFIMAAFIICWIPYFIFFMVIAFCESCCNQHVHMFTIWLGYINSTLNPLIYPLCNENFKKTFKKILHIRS", "test": "H1 binding assay, [3H]pyrilamine displacement"}, "[2]": {"molecular_target": "T2, human recombinant M1 muscarinic receptor expressed in CHO cells (Homo sapiens, UniProt P11229)", "T2 construct": "expressed in transfected cells; host or cells: CHO cells", "T2 sequence (P11229 1-460)": "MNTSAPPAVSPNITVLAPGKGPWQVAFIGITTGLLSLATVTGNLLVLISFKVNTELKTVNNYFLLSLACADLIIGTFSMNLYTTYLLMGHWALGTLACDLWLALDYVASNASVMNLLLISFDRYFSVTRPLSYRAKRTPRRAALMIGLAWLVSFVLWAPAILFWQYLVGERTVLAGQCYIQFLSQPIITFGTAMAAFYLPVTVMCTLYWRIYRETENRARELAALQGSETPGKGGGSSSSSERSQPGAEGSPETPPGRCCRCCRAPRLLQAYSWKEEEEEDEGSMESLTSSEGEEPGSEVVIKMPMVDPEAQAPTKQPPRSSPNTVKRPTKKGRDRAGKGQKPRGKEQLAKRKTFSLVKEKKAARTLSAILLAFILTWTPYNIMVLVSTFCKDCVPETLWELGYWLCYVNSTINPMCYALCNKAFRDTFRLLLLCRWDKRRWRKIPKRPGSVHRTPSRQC", "test": "M1 binding assay (human recombinant), [3H]-scopolamine N-methyl chloride"}, "[3]": {"molecular_target": "T3, human recombinant M2 muscarinic receptor expressed in CHO cells (Homo sapiens, UniProt P08172)", "T3 construct": "expressed in transfected cells; host or cells: CHO cells", "T3 sequence (P08172 1-466)": "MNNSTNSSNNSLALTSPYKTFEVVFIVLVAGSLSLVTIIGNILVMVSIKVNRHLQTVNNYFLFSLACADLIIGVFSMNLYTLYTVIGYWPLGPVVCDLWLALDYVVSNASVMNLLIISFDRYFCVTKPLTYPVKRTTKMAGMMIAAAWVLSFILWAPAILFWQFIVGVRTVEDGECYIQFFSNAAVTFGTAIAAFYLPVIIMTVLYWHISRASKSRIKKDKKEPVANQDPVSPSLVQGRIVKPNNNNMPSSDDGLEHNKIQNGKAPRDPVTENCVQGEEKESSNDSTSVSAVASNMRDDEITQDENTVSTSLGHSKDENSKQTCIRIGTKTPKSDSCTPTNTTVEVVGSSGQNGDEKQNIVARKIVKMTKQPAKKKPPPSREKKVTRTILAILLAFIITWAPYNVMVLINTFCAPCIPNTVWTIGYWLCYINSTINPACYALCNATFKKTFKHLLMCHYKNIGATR", "test": "M2 binding assay (human recombinant)", "details": "Examples 15-17; unit inferred; read-out: binding affinity for cholinergic (muscarinic) receptor M2"}, "[4]": {"molecular_target": "T4, human recombinant M3 muscarinic receptor expressed in CHO cells (Homo sapiens, UniProt P20309)", "T4 construct": "expressed in transfected cells; host or cells: CHO cells", "T4 sequence (P20309 whole entry)": "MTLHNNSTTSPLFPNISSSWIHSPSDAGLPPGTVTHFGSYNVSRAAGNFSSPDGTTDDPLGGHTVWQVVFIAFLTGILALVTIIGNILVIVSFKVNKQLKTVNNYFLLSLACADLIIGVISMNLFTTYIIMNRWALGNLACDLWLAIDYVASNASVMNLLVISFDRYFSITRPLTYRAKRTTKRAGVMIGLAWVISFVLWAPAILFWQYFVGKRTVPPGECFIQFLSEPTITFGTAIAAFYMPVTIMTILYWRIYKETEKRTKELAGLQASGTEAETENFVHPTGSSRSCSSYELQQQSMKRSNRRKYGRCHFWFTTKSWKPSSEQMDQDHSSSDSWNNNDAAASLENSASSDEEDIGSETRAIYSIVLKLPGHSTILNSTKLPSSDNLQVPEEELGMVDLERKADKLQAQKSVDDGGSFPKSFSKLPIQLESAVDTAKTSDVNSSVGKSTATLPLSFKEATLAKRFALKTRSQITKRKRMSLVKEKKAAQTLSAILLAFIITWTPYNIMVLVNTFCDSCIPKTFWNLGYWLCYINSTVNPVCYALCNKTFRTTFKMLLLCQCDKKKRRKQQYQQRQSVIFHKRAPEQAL", "test": "M3 binding assay (human recombinant)"}, "male Wistar rats": {"system": "male Wistar rats", "test": "Sleep-wakefulness, locomotor activity and body temperature monitoring (SCORE-2000)", "type": "in vivo, rat", "details": "for sleep continuity, as assessed by sleep bout length: 10 mg/kg PO at CT-18, male Wistar rats; for total sleep time post-treatment: 10 mg/kg PO at CT-18, versus methylcellulose vehicle; for body temperature adverse effects / disproportional locomotor inhibition: rats"}, "[5]": {"details": "Examples 15-17, read-out: Ki, H1 binding assay"}},
  "note": "Where two headings read alike, the source gives them in different places.",
  "data": [
    {"compound": "CC(C)(CN1CCN(C2=Nc3cc(Cl)ccc3Nc3ccccc32)CC1)C(=O)O", "note": "[Compound SS2]", "values": [
      {"measurement": "Ki", "setting": "[1]; [5]", "value": 23.4, "unit": "nM"},
      {"measurement": "Ki", "setting": "[2]; Examples 15-17, unit inferred, read-out: binding affinity for cholinergic (muscarinic) receptor M1", "value": "> 10000", "unit": "nM"},
      {"measurement": "Ki", "setting": "[3]", "value": "> 10", "unit": "µM"},
      {"measurement": "Ki", "setting": "[4]; Examples 15-17, unit inferred, read-out: binding affinity for cholinergic (muscarinic) receptor M3", "value": "> 10", "unit": "µM"},
      {"measurement": "sleep continuity, as assessed by sleep bout length", "setting": "male Wistar rats", "value": "increased sleep continuity"},
      {"measurement": "total sleep time post-treatment", "setting": "male Wistar rats", "value": "significantly increased total sleep time"},
      {"measurement": "body temperature adverse effects", "setting": "male Wistar rats", "value": "no evidence of causing disproportional locomotor inhibition or body temperature adverse effects"},
      {"measurement": "disproportional locomotor inhibition", "setting": "male Wistar rats", "value": "no evidence of causing disproportional locomotor inhibition or body temperature adverse effects"}
    ]},
    {"compound": "CC(C)(CN1CCC(=C2c3ccccc3COc3ccccc32)CC1)C(=O)O", "note": "[Compound 74a]", "values": [
      {"measurement": "Average Bout-Length", "setting": "male Wistar rats; 30 mg/kg PO at CT-18", "value": 9.9, "unit": "min"},
      {"measurement": "Duration", "setting": "male Wistar rats; 30 mg/kg PO at CT-18", "value": "5 to 6", "unit": "h"},
      {"measurement": "Maximum Bout Length", "setting": "male Wistar rats; 30 mg/kg PO at CT-18", "value": 22.3, "unit": "min"},
      {"measurement": "NREM Accum.", "setting": "male Wistar rats; 30 mg/kg PO at CT-18", "value": 43.4, "unit": "min"},
      {"measurement": "NREM Peak (%/hr)", "setting": "male Wistar rats; 30 mg/kg PO at CT-18", "value": 64.4, "unit": "%/hr"},
      {"measurement": "Onset", "setting": "male Wistar rats; 30 mg/kg PO at CT-18", "value": "70 to 80", "unit": "min"}
    ]},
    {"compound": "Cl.O=C(O)CCN1CCC(=C(c2ccccc2)c2ccccc2)CC1", "note": "[Compound U1]", "values": [
      {"measurement": "Ki", "setting": "[1]; [5]", "value": "< 500", "unit": "nM"},
      {"measurement": "sleep continuity, as assessed by sleep bout length", "setting": "male Wistar rats", "value": "increased sleep continuity"},
      {"measurement": "total sleep time post-treatment", "setting": "male Wistar rats", "value": "significantly increased total sleep time"},
      {"measurement": "net longest sleep bout post treatment", "setting": "male Wistar rats; adjusted using a baseline value at least 24 hours prior, functional criteria list", "value": "greater than or equal to 3 minutes"},
      {"measurement": "average sleep bout", "setting": "male Wistar rats; at absolute peak, functional criteria list", "value": "greater than 5 minutes"},
      {"measurement": "nonREM peak time value", "setting": "male Wistar rats; by the third hour after administration, functional criteria list", "value": "greater than 55 % nonREM sleep per hour"},
      {"measurement": "cumulative total increase in nonREM sleep", "setting": "male Wistar rats; doses that produce maximum sleep consolidation, functional criteria list", "value": "not less than 20 minutes"},
      {"measurement": "REM sleep inhibition", "setting": "male Wistar rats; functional criteria list", "value": "does not appreciably inhibit REM sleep"},
      {"measurement": "locomotor activity inhibition relative to the normal effects of sleep", "setting": "male Wistar rats; functional criteria list", "value": "does not disproportionately inhibit locomotor activity"},
      {"measurement": "longest sleep bout", "setting": "male Wistar rats; functional criteria list", "value": "greater than 13 minutes"},
      {"measurement": "rebound insomnia", "setting": "male Wistar rats; functional criteria list", "value": "does not produce appreciable amounts of rebound insomnia"},
      {"measurement": "body temperature adverse effects", "setting": "male Wistar rats", "value": "no evidence of causing disproportional locomotor inhibition or body temperature adverse effects"},
      {"measurement": "disproportional locomotor inhibition", "setting": "male Wistar rats", "value": "no evidence of causing disproportional locomotor inhibition or body temperature adverse effects"}
    ]},
    {"compound": "O=C(O)CN1CCC(C(c2ccccc2)c2ccccc2)CC1", "note": "[Compound 16a, [4-(Diphenylmethyl)piperidin-1-yl]ethanoic acid]", "values": [
      {"measurement": "Ki", "setting": "[1]; Receptor Binding Data (Ki nM) H1, Table 7", "value": 43.9, "unit": "nM"},
      {"measurement": "Ki", "setting": "[2]; Table 7, human recombinant, read-out: Receptor Binding Data (Ki nM) M1", "value": "> 10000", "unit": "nM"},
      {"measurement": "Ki", "setting": "[4]", "value": "> 10", "unit": "µM"},
      {"measurement": "Average Bout-Length", "setting": "male Wistar rats; 30 mg/kg PO at CT-18", "value": 5.4, "unit": "min"},
      {"measurement": "Duration", "setting": "male Wistar rats; 30 mg/kg PO at CT-18", "value": 5, "unit": "h"},
      {"measurement": "Maximum Bout Length", "setting": "male Wistar rats; 30 mg/kg PO at CT-18", "value": 11.8, "unit": "min"},
      {"measurement": "NREM Accum.", "setting": "male Wistar rats; 30 mg/kg PO at CT-18", "value": 20.7, "unit": "min"},
      {"measurement": "NREM Peak (%/hr)", "setting": "male Wistar rats; 30 mg/kg PO at CT-18", "value": 57.9, "unit": "%/hr"},
      {"measurement": "Onset", "setting": "male Wistar rats; 30 mg/kg PO at CT-18", "value": 180, "unit": "min"}
    ]},
    {"compound": "O=C(O)CCCN1CCC(=C2c3ccccc3COc3ccccc32)CC1", "note": "[Compound 73a]", "values": [
      {"measurement": "Average Bout-Length", "setting": "male Wistar rats; 30 mg/kg PO at CT-18", "value": 14.5, "unit": "min"},
      {"measurement": "Duration (hrs)", "setting": "male Wistar rats; 30 mg/kg PO at CT-18", "value": "5-6+ hrs"},
      {"measurement": "Maximum Bout Length", "setting": "male Wistar rats; 30 mg/kg PO at CT-18", "value": 27.6, "unit": "min"},
      {"measurement": "NREM Accum.", "setting": "male Wistar rats; 30 mg/kg PO at CT-18", "value": 47.3, "unit": "min"},
      {"measurement": "NREM Peak (%/hr)", "setting": "male Wistar rats; 30 mg/kg PO at CT-18", "value": 62.2, "unit": "%/hr"},
      {"measurement": "Onset", "setting": "male Wistar rats; 30 mg/kg PO at CT-18", "value": 45, "unit": "min"}
    ]},
    {"compound": "Cl.O=C(O)CCCN1CCC(OC(c2ccccc2)c2ccccc2)CC1", "note": "[Compound 53a]", "values": [
      {"measurement": "Average Bout-Length", "setting": "male Wistar rats; 30 mg/kg PO at CT-18", "value": 4.3, "unit": "min"},
      {"measurement": "Duration", "setting": "male Wistar rats; 30 mg/kg PO at CT-18", "value": 4, "unit": "h"},
      {"measurement": "Maximum Bout Length", "setting": "male Wistar rats; 30 mg/kg PO at CT-18", "value": 9.1, "unit": "min"},
      {"measurement": "NREM Accum.", "setting": "male Wistar rats; 30 mg/kg PO at CT-18", "value": 17.4, "unit": "min"},
      {"measurement": "NREM Peak (%/hr)", "setting": "male Wistar rats; 30 mg/kg PO at CT-18", "value": 49.2, "unit": "%/hr"},
      {"measurement": "Onset", "setting": "male Wistar rats; 30 mg/kg PO at CT-18", "value": 30, "unit": "min"}
    ]},
    {"compound": "O=C(O)CCN1CCC(OC(c2ccccc2)c2ccccc2)CC1", "note": "[Compound 6a, 3-[4-(diphenylmethoxy)piperidin-1-yl]propanoic acid]", "values": [
      {"measurement": "Average Bout-Length", "setting": "male Wistar rats; 30 mg/kg PO at CT-18", "value": 7.0, "unit": "min"},
      {"measurement": "Duration", "setting": "male Wistar rats; 30 mg/kg PO at CT-18", "value": 5, "unit": "h"},
      {"measurement": "Maximum Bout Length", "setting": "male Wistar rats; 30 mg/kg PO at CT-18", "value": 12.8, "unit": "min"},
      {"measurement": "NREM Accum.", "setting": "male Wistar rats; 30 mg/kg PO at CT-18", "value": 26.5, "unit": "min"},
      {"measurement": "NREM Peak (%/hr)", "setting": "male Wistar rats; 30 mg/kg PO at CT-18", "value": 56.4, "unit": "%/hr"},
      {"measurement": "Onset", "setting": "male Wistar rats; 30 mg/kg PO at CT-18", "value": 65, "unit": "min"}
    ]}
  ]
}
